The text below walks through data of patent US10526325B2, “Bicyclic heterocyclic derivatives” (Merck Patent GmbH, priority 2015, dated 2020).

Assay [1] concerns PDH-E1alpha (pSer300) in HEK293T cells. Description: Cellular immunofluorescence assay, PDH-E1alpha (pSer300) in HEK293T cells. It is filed as cell-based, human. The settings on record: 5 hours incubation, anti-PDH-E1alpha (pSer300) immunofluorescence, read-out: IC50 (cell data). Here is the method:
Cellular Assay for Determination of Compound Activities
Compound activities were determined in a cellular immunofluorescence assay. Human HEK293T cells were seeded into black 384-well plates with clear bottom and grown overnight.
Next day, test compounds were added to the wells and the plates incubated for 5 hours. Following this, cells were fixed with formaldehyde, permeabilised and blocked. The primary antibody, Anti-PDH-E1alpha (pSer300), AP1064 (Merck Millipore) was added and incubated overnight in the plate wells. Next, cells were washed and the secondary antibody, Alexa Fluor 488, goat anti-rabbit ab (A-11008, Invitrogen) was added together with Hoechst 33258 (H3569, Invitrogen) and incubated for 1 hour in the plate wells. Finally, cells were washed and the plates were measured on the laser scanning cytometer acumen hci (TTpLabtech).
The raw data were normalized against a pharmacological inhibitor control and dose response curves were generated by plotting the percent effect values using the software package Genedata screener (Genedata).

Another assay has as its target PDHK2 (Homo sapiens (Human), UniProt Q15119). Nature of the assay: Biochemical activity testing of PDHK2: PDC inactivation assay. The settings on record: human rec PDHK2, porcine heart PDC, 5 μM ATP, read-out: IC50 PDHK2 (enzyme assay). From the text:
Biochemical Activity Testing of PDHK2: PDC Inactivation Assay
The biochemical activity assay for PDHK2 is based on the inactivation of PDC through phosphorylation by PDHK2. The assay is run in two steps: the enzymatic PDHK2 reaction in which isolated PDC is phosphorylated by PDHK2 with ATP as co-substrate and the PDC activity assay in which pyruvate and NAD are converted to acetyl-CoA and NADH. The PDC activity correlates to the increase in NADH and thereby is detectable directly via the increasing fluorescence signal (Exc 340 nm, Em 450 nm). Inhibition of PDHK2 results in a lower phosphorylation status and thereby a less decrease in activity of PDC and a stronger increase in NADH fluorescence signal.
The PDC inactivation assay is performed in Greiner 384-well microtiter plates and is used for high throughput screen. 4 μl of PDHK2 (human, rec, Carna Bioscience, 10 ng/μl-137 nM final concentration) and PDC (isolated from porcine heart, Sigma-Aldrich, 20 mU/ml final concentration) are incubated in the absence or presence of the test compound (10 dilution concentrations) for 30 min at room temperature in kinase buffer (15 mM potassium phosphate buffer, pH 7.0, 60 mM KCl, 1.5 mM DTT, 2.5 mM MgCl2, 0.0125% (w/v) BSA, 0.125% Pluronic F-68). The kinase reaction is started by the addition of 4 μl ATP substrate solution (fc 5 μM in kinase buffer). After 30 min incubation at 37° C. 40 μl of PDC reaction solution (100 mM Tris/HCl, pH 7.8, 0.5 mM EDTA, 1 mM MgCl2, 50 mM NaF, 0.25 mM Coenzyme A, 5 mM pyruvate, 1 mM NAD, 5 mM DTT, 1 mM thiamine pyrophosphate) is added. The first fluorescence measurement is performed on a Perkin Elmer Envision (Exc 340 nm, Em 450 nm). The reaction is incubated for 45 min at room temperature. Afterwards a second fluorescence measurement is performed and the PDC activity is calculated by the difference between both measurements. As full value for the PDHK2 assay the inhibitor-free PDHK2 reaction is used. The pharmacological zero value used is DCA (Sigma-Aldrich) in a final concentration of 3 mM. The inhibitory values […] were determined using either the program Symyx Assay Explorer® or Condosseo® from GeneData.

The next assay concerns the target human PDHK2 (12-407) (Homo sapiens (Human), UniProt Q15119). Description: Isothermal titration calorimetry (ITC) binding. Conditions: ITC at 30° C., pH 7.5. Here is the method: Isothermal Titration Calorimetry
ITC measurements were performed with a VP-ITC micro calorimeter (Microcal, LLC/GE Healthcare Bio-Sciences Aft Uppsala, Sweden). In general titrations were performed by titrating the protein (50 μM) to the test compound (5 μM) in 12 μl injections. All binding experiments were carried out at 30° C. In general the test compounds were diluted form DMSO stock solutions into the measurement buffer with a maximum final concentration of 1% DMSO. The measurement buffer was 20 mM HEPES, 135 mM KCl, 1 mM TCEP, 2 mM MgCl2, 15 mM NaH2PO4, pH 7.5. The human PDHK2 (12-407) was produced in E. coli as his-tagged protein and purified by affinity chromatography. The tag was removed by side specific proteolysis. Before titration the protein buffer was changed to the measurement buffer containing the same DMSO concentration as the test compound dilution. ITC data analysis was performed using Origin 7 calorimetry software from the same supplier. For most measurements a binding model of one binding site was assumed. According to the applied mathematical model it is possible to calculate the binding constant (KA), the observed binding enthalpy (ΔH^obs) as well as the stoichiometry (N) of the formed complex.
Preceding analysis the raw data was corrected for the heats of dilution by extrapolating from the saturation value from the end of titration. In order to allow for direct comparison between the respective experimental series and protein preparations the protein concentration was corrected by referencing titrations to a well behaved standard inhibitor. The apparent stoichiometry values defined the fraction of binding competent protein and compensated for relative errors in protein concentration measurements. This corrected protein concentration was used to set up ITC experiment series with test compounds. Any deviations from ideal 1:1 stoichiometry observed here were attributed to errors in compound concentration. This nominal compound concentration was corrected as well to achieve 1:1 stoichiometry in the fit.

Like-named read-outs stand apart in the source and are kept apart here.

On to `C[C@H]1CN(C(=O)[C@@](C)(O)C(F)(F)F)Cc2cnn(-c3ccc(Cl)cc3)c21` [Compound A11, (R)-1-[(S)-1-(4-Chloro-phenyl)-7-methyl-1,4,6,7-tetrahydro-pyrazolo[4,3-c]pyridin-5-yl]-3,3,3-trifluoro-2-hydroxy-2-methyl-propan-1-one], for which the IC50 in assay [1] (Homo sapiens, HEK-293T) lay within 300 to 3000 nM; at PDHK2, 3000 to 50000 nM. This molecule yielded a Kd at human PDHK2 (12-407) of 300 to 3000 nM.
On to `C[C@@](O)(C(=O)N1CCn2c(-c3ccccc3)cnc2C1)C(F)(F)F` [Compound A49, (R)-3,3,3-Trifluoro-2-hydroxy-2-methyl-1-(3-phenyl-5,6-dihydro-8H-imidazo[1,2-a]pyrazin-7-yl)-propan-1-one], for which the IC50 lay within 3000 to 50000 nM in assay [1] (Homo sapiens, HEK-293T) and 300 to 3000 nM at PDHK2. Moreover, the Kd on human PDHK2 (12-407) is < 300 nM.
In the same order, the values of `C[C@@](O)(C(=O)N1CCc2c(cnn2-c2ccc(F)cc2F)C1)C(F)(F)F` [Compound A5, (R)-1-[1-(2,4-Difluoro-phenyl)-1,4,6,7-tetrahydro-pyrazolo[4,3-c]pyridin-5-yl]-3,3,3-trifluoro-2-hydroxy-2-methyl-propan-1-one] are 300 to 3000 nM, < 300 nM and < 300 nM.
As for `C[C@@H]1CN(C(=O)[C@@](C)(O)C(F)(F)F)Cc2cnn(-c3ncccc3F)c21` [Compound A32, (R)-3,3,3-Trifluoro-1-[(R)-1-(3-fluoro-pyridin-2-yl)-7-methyl-1,4,6,7-tetrahydro-pyrazolo[4,3-c]pyridin-5-yl]-2-hydroxy-2-methyl-propan-1-one], the concentration for half-maximal inhibition (IC50) was < 300 nM in assay [1] (Homo sapiens, HEK-293T) and < 300 nM at PDHK2. The Kd on human PDHK2 (12-407) is < 300 nM.
Regarding `CC(C)(C)n1ncc2c1CCN(C(=O)[C@@](C)(O)C(F)(F)F)C2` [Compound A7, (R)-1-(1-tert-Butyl-1,4,6,7-tetrahydro-pyrazolo[4,3-c]pyridin-5-yl)-3,3,3-trifluoro-2-hydroxy-2-methyl-propan-1-one], the IC50 in assay [1] (Homo sapiens, HEK-293T) was 300 to 3000 nM; on PDHK2 it was < 300 nM. In addition, the Kd on human PDHK2 (12-407) is < 300 nM.
On to `CC1CN(C(=O)[C@@](C)(O)C(F)(F)F)Cc2cnn(-c3ccccc3)c21` (stereo partly drawn) [Compound A16, (R)-3,3,3-Trifluoro-2-hydroxy-2-methyl-1-(7-methyl-1-phenyl-1,4,6,7-tetra-hydro-pyrazolo[4,3-c]pyridin-5-yl)-propan-1-one], for which the IC50 in assay [1] (Homo sapiens, HEK-293T) is < 300 nM; at PDHK2, < 300 nM. Further, the Kd at human PDHK2 (12-407) is < 300 nM.
With `C[C@@](O)(C(=O)N1CCn2c(cnc2-c2ccc(F)cc2)C1)C(F)(F)F` [Compound A51, (R)-3,3,3-Trifluoro-1-[3-(4-fluoro-phenyl)-5,6-dihydro-8H-imidazo[1,5-a]pyrazin-7-yl]-2-hydroxy-2-methyl-propan-1-one], the IC50 in assay [1] (Homo sapiens, HEK-293T) is 3000 to 50000 nM; on PDHK2, 300 to 3000 nM. Moreover, at human PDHK2 (12-407), the Kd was < 300 nM.
For `C[C@@H]1CN(C(=O)[C@@](C)(O)C(F)(F)F)Cc2cnn(-c3ccc(F)cc3)c21` [Compound A14, (R)-3,3,3-Trifluoro-1-[(R)-1-(4-fluoro-phenyl)-7-methyl-1,4,6,7-tetrahydro-pyrazolo[4,3-c]pyridin-5-yl]-2-hydroxy-2-methyl-propan-1-one], the IC50 in assay [1] (Homo sapiens, HEK-293T) was < 300 nM; on PDHK2, < 300 nM. The Kd at human PDHK2 (12-407) was < 300 nM.
In the case of `C[C@@](O)(C(=O)N1CCc2c(cnn2-c2ccc(F)cc2)C1)C(F)(F)F` [Compound A4, (R)-3,3,3-Trifluoro-1-[1-(4-fluoro-phenyl)-1,4,6,7-tetrahydro-pyrazolo[4,3-c]pyridin-5-yl]-2-hydroxy-2-methyl-propan-1-one], the IC50 in assay [1] (Homo sapiens, HEK-293T) is 300 to 3000 nM; on PDHK2 it was < 300 nM. The Kd at human PDHK2 (12-407) was < 300 nM.
Regarding `C[C@@H]1CN(C(=O)[C@@](C)(O)C(F)(F)F)Cc2cnn(-c3ccccc3)c21` [Compound A18, (R)-3,3,3-Trifluoro-2-hydroxy-2-methyl-1-((R)-7-methyl-1-phenyl-1,4,6,7-tetrahydro-pyrazolo[4,3-c]pyridin-5-yl)-propan-1-one], the IC50 is < 300 nM in assay [1] (Homo sapiens, HEK-293T) and < 300 nM on PDHK2. In addition, the Kd on human PDHK2 (12-407) was < 300 nM.
Turning to `COc1ncc(F)c(-n2ncc3c2[C@@H](C)CN(C(=O)[C@@](C)(O)C(F)(F)F)C3)n1` [Compound A37, (R)-3,3,3-Trifluoro-1-[(S)-1-(5-fluoro-2-methoxy-pyrimidin-4-yl)-7-methyl-1,4,6,7-tetrahydro-pyrazolo[4,3-c]pyridin-5-yl]-2-hydroxy-2-methyl-propan-1-one], the IC50 in assay [1] (Homo sapiens, HEK-293T) is 3000 to 50000 nM; on PDHK2, 300 to 3000 nM. At human PDHK2 (12-407), the Kd was 300 to 3000 nM.
In the case of `C[C@@H]1CN(C(=O)[C@@](C)(O)C(F)(F)F)Cc2cnn(-c3ccc(Cl)cc3)c21` [Compound A10, (R)-1-[(R)-1-(4-Chloro-phenyl)-7-methyl-1,4,6,7-tetrahydro-pyrazolo[4,3-c]pyridin-5-yl]-3,3,3-trifluoro-2-hydroxy-2-methyl-propan-1-one], the IC50 in assay [1] (Homo sapiens, HEK-293T) is < 300 nM; at PDHK2, < 300 nM. Besides, the Kd at human PDHK2 (12-407) was < 300 nM.
Turning to `CC1CN(C(=O)[C@@](C)(O)C(F)(F)F)Cc2cn(-c3ccc(F)cc3)nc21` (stereo partly drawn) [Compound A13, (2R)-3,3,3-trifluoro-1-[2-(4-fluorophenyl)-7-methyl-6,7-dihydro-4H-pyrazolo[4,3-c]pyridin-5-yl]-2-hydroxy-2-methyl-propan-1-one], the IC50 is 3000 to 50000 nM in assay [1] (Homo sapiens, HEK-293T) and 300 to 3000 nM on PDHK2. This molecule displayed a Kd on human PDHK2 (12-407) of 300 to 3000 nM.
Take `C[C@@](O)(C(=O)N1CCc2c(cnn2-c2ccc(Cl)cc2)C1)C(F)(F)F` [Compound A1, (2R)-1-[1-(4-chlorophenyl)-6,7-dihydro-4H-pyrazolo[4,3-c]pyridin-5-yl]-3,3,3-trifluoro-2-hydroxy-2-methyl-propan-1-one]: the IC50 in assay [1] (Homo sapiens, HEK-293T) is 3000 to 50000 nM; on PDHK2, < 300 nM. Moreover, the Kd on human PDHK2 (12-407) was < 300 nM.
On to `C[C@@](O)(C(=O)N1CCc2ncn(-c3ccccc3)c2C1)C(F)(F)F` [Compound A43, (R)-3,3,3-Trifluoro-2-hydroxy-2-methyl-1-(3-phenyl-3,4,6,7-tetrahydro-imidazo[4,5-c]pyridin-5-yl)-propan-1-one], for which the IC50 (in assay [1]; at PDHK2) was 300 to 3000 nM in each case. The Kd at human PDHK2 (12-407) was < 300 nM.
